According to paper PMC6704710, “Preclinical evaluation of 3D185, a novel potent inhibitor of FGFR1/2/3 and CSF-1R, in FGFR-dependent and macrophage-dominant cancer models” (Journal of Experimental & Clinical Cancer Research : CR, 2019):

Columns and labels:
Assay in all cases: Eurofins kinase panel
Type in all cases: biochemical
Settings in all cases: read-out: Inhibition rate (%)
Arg(h) = target: T1, Arg(h) (Homo sapiens, UniProt P42684)
T1 construct: purchased Eurofins (KinaseProfiler)

FAK(h) = target: T2, FAK(h) (Homo sapiens, UniProt Q05397)
T2 construct: purchased Eurofins (KinaseProfiler)
T2 sequence (Q05397 whole entry): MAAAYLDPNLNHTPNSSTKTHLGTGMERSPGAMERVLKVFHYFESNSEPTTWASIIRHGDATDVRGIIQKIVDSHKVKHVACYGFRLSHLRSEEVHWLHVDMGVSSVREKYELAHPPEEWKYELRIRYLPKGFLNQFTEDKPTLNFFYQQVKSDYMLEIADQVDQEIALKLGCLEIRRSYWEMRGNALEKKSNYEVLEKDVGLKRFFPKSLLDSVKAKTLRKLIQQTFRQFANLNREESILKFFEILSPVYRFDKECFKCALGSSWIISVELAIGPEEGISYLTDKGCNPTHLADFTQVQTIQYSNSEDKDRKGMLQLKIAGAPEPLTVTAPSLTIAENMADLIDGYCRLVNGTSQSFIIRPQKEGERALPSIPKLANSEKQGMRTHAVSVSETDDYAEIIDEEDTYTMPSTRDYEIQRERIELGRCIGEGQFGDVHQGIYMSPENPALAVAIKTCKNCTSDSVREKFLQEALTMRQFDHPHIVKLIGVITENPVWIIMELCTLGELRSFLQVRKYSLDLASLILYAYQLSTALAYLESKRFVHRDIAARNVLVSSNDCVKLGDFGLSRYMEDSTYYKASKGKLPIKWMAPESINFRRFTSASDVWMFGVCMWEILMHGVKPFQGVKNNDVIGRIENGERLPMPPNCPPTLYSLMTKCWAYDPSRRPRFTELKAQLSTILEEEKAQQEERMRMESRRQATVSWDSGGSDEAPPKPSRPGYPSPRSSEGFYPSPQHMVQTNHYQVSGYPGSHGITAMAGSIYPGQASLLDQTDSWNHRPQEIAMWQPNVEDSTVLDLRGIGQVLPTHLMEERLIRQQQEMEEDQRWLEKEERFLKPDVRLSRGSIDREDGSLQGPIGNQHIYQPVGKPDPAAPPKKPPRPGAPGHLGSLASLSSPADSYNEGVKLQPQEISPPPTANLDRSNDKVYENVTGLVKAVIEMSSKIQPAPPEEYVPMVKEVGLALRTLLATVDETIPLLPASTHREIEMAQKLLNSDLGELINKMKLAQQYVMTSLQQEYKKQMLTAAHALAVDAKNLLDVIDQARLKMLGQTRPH

FGFR4(h) = target: T3, FGFR4(h) (Homo sapiens, UniProt P22455)
T3 construct: purchased Eurofins (KinaseProfiler)
T3 sequence (P22455 22-802): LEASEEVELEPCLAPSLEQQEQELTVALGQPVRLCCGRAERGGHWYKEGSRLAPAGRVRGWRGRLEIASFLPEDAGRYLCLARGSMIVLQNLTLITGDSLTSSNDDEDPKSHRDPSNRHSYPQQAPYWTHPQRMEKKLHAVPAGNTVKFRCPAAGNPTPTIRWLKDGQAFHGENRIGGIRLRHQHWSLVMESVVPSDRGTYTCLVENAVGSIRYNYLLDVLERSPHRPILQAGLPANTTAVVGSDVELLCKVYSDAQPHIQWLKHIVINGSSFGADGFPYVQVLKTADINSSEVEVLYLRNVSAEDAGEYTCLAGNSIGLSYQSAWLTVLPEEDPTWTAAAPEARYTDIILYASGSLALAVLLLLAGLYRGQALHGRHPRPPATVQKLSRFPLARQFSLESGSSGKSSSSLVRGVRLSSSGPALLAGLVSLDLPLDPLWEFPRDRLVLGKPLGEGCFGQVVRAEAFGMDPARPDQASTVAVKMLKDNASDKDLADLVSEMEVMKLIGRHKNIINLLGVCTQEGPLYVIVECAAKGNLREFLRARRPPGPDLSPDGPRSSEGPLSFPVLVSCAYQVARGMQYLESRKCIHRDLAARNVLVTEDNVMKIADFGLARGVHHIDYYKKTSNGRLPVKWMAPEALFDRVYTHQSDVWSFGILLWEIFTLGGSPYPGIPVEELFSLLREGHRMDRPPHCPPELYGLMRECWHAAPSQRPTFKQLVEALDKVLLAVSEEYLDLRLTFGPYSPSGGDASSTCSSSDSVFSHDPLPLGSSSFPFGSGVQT

MSSK1(h) = target: T4, MSSK1(h) (Homo sapiens, UniProt Q9UPE1)
T4 construct: purchased Eurofins (KinaseProfiler)
T4 sequence (Q9UPE1 whole entry): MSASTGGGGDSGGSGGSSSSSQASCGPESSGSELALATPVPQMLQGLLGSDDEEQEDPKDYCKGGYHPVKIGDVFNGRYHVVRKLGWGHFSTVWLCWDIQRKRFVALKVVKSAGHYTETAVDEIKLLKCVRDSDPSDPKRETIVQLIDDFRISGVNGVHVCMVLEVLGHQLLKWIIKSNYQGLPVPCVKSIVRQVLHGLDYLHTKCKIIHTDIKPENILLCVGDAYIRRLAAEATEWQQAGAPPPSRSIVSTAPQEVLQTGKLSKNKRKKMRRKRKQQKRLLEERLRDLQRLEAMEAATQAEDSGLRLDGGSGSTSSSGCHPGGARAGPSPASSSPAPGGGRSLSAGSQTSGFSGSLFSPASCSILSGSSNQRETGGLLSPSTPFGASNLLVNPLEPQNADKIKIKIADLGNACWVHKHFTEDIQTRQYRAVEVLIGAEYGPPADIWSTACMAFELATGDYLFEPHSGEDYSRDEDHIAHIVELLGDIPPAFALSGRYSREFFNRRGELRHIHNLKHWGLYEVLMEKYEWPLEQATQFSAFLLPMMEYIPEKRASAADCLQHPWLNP

Met(Y1248H)(h) = target: T5, Met(Y1248H)(h) (Homo sapiens, UniProt P08581, Y1230H)
T5 construct: purchased Eurofins (KinaseProfiler)

NLK(h) = target: T6, NLK(h) (Homo sapiens, UniProt Q9UBE8)
T6 construct: purchased Eurofins (KinaseProfiler)
T6 sequence (Q9UBE8 1-527): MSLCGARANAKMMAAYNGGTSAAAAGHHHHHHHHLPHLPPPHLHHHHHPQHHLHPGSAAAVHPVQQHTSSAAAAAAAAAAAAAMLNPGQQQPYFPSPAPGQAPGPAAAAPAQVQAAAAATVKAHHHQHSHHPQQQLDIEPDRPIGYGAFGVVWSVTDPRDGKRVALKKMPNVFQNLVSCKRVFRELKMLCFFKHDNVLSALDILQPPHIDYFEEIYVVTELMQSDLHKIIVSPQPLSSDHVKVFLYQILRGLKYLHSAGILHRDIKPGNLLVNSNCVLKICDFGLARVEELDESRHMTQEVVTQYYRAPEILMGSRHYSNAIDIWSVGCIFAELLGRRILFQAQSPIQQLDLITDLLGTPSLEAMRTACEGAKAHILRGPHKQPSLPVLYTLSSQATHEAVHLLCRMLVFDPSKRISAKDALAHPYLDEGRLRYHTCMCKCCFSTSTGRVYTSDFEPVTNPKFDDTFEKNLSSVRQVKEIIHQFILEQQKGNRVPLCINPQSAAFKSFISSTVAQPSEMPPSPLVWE

PI3 Kinase (p120γ)(h) = target: T7, PI3 Kinase (p120γ)(h) (Homo sapiens, UniProt P48736)
T7 construct: purchased Eurofins (KinaseProfiler)
T7 sequence (P48736 whole entry): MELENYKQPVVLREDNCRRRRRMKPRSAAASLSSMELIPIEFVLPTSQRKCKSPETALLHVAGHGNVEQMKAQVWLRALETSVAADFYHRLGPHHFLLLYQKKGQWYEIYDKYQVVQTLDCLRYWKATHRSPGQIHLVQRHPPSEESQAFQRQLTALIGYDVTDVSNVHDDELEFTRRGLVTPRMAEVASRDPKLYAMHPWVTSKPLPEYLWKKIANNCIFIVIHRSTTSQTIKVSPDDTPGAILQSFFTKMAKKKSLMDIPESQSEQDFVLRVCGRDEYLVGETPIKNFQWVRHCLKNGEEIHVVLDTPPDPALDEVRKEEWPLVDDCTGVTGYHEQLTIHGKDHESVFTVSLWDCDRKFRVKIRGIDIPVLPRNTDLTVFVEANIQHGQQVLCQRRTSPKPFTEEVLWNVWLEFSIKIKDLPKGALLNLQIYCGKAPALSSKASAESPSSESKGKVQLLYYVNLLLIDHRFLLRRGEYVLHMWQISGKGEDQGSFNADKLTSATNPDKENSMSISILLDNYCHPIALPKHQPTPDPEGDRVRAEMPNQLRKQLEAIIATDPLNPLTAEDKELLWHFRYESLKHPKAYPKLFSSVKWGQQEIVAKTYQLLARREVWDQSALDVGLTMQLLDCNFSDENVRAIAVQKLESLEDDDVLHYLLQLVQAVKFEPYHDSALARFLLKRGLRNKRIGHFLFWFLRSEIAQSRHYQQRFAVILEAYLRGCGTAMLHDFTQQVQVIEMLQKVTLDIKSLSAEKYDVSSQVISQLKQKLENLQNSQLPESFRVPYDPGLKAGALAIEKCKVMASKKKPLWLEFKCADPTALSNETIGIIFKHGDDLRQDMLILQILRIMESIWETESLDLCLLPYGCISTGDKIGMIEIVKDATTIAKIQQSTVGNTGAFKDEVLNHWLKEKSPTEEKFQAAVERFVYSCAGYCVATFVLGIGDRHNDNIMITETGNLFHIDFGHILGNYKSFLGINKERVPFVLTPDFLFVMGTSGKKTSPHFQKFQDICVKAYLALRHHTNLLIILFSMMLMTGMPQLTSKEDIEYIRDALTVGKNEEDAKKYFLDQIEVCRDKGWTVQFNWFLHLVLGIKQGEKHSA

Src(1-530)(h) = target: T8, Src(1-530)(h) (Homo sapiens, UniProt P12931)
T8 construct: purchased Eurofins (KinaseProfiler)

TAK1(h) = target: T9, TAK1(h) (Homo sapiens, UniProt O43318)
T9 construct: purchased Eurofins (KinaseProfiler)
T9 sequence (O43318 1-303 limits assumed): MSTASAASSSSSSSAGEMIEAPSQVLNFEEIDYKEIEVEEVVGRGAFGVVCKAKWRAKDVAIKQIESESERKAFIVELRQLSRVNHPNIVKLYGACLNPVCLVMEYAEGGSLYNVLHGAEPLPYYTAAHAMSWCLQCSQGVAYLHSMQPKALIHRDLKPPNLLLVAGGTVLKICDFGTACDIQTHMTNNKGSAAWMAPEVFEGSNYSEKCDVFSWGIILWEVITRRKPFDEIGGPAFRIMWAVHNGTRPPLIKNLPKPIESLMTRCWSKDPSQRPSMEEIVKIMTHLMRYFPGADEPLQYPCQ

eEF-2K(h) = target: T10, eEF-2K(h) (Homo sapiens, UniProt O00418)
T10 construct: purchased Eurofins (KinaseProfiler)
T10 sequence (O00418 1-725): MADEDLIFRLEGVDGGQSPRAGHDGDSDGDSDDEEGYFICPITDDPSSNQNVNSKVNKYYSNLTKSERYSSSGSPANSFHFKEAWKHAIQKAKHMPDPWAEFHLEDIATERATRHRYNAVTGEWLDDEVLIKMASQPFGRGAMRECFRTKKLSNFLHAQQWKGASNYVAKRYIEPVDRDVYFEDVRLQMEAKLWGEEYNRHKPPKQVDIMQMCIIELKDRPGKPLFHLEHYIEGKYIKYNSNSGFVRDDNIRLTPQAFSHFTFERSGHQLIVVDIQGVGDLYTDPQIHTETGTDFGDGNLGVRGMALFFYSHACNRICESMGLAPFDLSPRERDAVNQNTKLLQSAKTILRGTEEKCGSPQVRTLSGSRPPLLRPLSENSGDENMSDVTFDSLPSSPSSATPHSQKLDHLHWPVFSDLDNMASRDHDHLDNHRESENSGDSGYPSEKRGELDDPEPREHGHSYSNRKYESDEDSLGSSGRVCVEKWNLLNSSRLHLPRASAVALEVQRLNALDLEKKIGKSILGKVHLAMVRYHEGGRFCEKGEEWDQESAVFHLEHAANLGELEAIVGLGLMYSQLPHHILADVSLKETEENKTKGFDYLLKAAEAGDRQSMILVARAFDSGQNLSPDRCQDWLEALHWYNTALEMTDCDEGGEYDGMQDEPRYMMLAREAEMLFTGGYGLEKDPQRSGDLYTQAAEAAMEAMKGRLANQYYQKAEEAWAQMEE

T1 sequence (P42684 whole entry): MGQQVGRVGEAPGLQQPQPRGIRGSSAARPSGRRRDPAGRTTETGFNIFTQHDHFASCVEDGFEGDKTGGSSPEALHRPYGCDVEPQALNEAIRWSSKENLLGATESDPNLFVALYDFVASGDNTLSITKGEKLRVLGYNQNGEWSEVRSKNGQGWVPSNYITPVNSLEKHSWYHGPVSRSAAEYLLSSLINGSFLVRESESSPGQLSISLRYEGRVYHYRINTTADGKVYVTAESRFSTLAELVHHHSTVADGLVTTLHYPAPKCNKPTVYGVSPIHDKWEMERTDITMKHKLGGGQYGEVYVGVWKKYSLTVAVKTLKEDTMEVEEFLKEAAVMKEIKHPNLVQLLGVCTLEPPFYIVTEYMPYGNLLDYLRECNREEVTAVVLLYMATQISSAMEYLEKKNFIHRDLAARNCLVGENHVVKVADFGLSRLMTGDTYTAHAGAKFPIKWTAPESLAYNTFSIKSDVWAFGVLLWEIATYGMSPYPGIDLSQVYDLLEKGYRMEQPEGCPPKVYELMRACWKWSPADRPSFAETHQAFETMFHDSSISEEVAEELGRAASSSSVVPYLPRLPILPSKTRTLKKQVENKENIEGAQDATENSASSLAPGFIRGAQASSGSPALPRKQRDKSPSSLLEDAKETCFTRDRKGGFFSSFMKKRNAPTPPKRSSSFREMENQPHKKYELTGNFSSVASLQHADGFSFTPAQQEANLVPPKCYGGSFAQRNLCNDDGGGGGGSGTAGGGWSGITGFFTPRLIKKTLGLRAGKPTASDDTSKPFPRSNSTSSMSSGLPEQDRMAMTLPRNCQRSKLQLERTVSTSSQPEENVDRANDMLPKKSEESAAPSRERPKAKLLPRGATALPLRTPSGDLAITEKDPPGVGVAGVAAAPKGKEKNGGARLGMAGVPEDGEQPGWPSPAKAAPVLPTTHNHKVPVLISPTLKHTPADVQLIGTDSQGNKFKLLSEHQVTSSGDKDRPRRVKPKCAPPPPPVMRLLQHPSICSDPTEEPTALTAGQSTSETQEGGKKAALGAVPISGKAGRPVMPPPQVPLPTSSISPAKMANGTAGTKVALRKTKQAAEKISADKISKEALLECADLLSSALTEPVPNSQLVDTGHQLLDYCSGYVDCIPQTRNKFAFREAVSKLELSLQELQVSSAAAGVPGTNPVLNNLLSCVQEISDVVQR

COc1cc(OC)c(Cl)c(-c2ccc3c(NC(=O)c4ccc(N5CCNC(C)(C)C5)cc4)n[nH]c3n2)c1Cl [3D185]
inhibition at 0.01 µM (Arg(h); 10 nM): 2% | inhibition at 0.1 µM (Arg(h); 100 nM): 36% | inhibition at 1 µM (Arg(h); 1000 nM): 87% | inhibition at 0.01 µM (FAK(h); 10 nM): 17% | inhibition at 0.1 µM (FAK(h); 100 nM): 29% | inhibition at 1 µM (FAK(h); 1000 nM): 58% | inhibition at 0.01 µM (FGFR4(h); 10 nM): 43% | inhibition at 0.1 µM (FGFR4(h); 100 nM): 91% | inhibition at 1 µM (FGFR4(h); 1000 nM): 100% | inhibition at 0.01 µM (MSSK1(h); 10 nM): 3% | inhibition at 0.1 µM (MSSK1(h); 100 nM): 11% | inhibition at 1 µM (MSSK1(h); 1000 nM): 18% | inhibition at 0.01 µM (Met(Y1248H)(h); 10 nM): -16% | inhibition at 0.1 µM (Met(Y1248H)(h); 100 nM): 8% | inhibition at 1 µM (Met(Y1248H)(h); 1000 nM): 46% | inhibition at 0.01 µM (NLK(h); 10 nM): 0% | inhibition at 0.1 µM (NLK(h); 100 nM): -6% | inhibition at 1 µM (NLK(h); 1000 nM): 3% | inhibition at 0.01 µM (PI3 Kinase (p120γ)(h); 10 nM): 0% | inhibition at 0.1 µM (PI3 Kinase (p120γ)(h); 100 nM): 1% | inhibition at 1 µM (PI3 Kinase (p120γ)(h); 1000 nM): 3% | inhibition at 0.01 µM (Src(1-530)(h); 10 nM): 4% | inhibition at 0.1 µM (Src(1-530)(h); 100 nM): 30% | inhibition at 1 µM (Src(1-530)(h); 1000 nM): 82% | inhibition at 0.01 µM (TAK1(h); 10 nM): -6% | inhibition at 0.1 µM (TAK1(h); 100 nM): 11% | inhibition at 1 µM (TAK1(h); 1000 nM): 13% | inhibition at 0.01 µM (eEF-2K(h); 10 nM): 4% | inhibition at 0.1 µM (eEF-2K(h); 100 nM): 2% | inhibition at 1 µM (eEF-2K(h); 1000 nM): 11%
